From patent publication US7687434B2, “Method of improving yield and vigor of plants” (Monsanto Technology, LLC, priority 2000, dated 2010)
Values after ≈ are worked out from the molar mass of the structure shown.

Assays:
Rhizoctonia solani 15-10 = experiment: In vitro inhibition of mycelial growth on silthiopham-amended agar; format: cell-based; for ACTIVITY RATING (0-3): key: 0 = no; 1 = weak; 2 = good; 3 = excellent
[1] = test system: Fusarium solani, var. coeruleum 4-5; experiment: as above; format: cell-based; for ACTIVITY RATING (0-3): key: 0 = no; 1 = weak; 2 = good; 3 = excellent
[2] = test system: Fusarium solani, var. pisi 34-1; experiment: as above; format: cell-based; for ACTIVITY RATING (0-3): key: 0 = no; 1 = weak; 2 = good; 3 = excellent
[3] = test system: soybean plants (CSR2121 variety); experiment: Soybean seed treatment field trial, upper Midwestern United States; format: in vivo
[4] = test system: microorganisms that are known to be soybean pathogens; experiment: In vitro inhibition of mycelial growth, summary for soybean pathogens; format: cell-based; conditions: summary of Table 6
Rhizoctonia solani 15-9 = experiment: In vitro inhibition of mycelial growth on silthiopham-amended agar; format: cell-based; for ACTIVITY RATING (0-3): key: 0 = no; 1 = weak; 2 = good; 3 = excellent
[5] = test system: Fusarium oxysporum var. pisi race1 33-9; experiment: as above; format: cell-based; for ACTIVITY RATING (0-3): key: 0 = no; 1 = weak; 2 = good; 3 = excellent
[6] = test system: Fusarium oxysporum var. pisi race1 33-10; experiment: as above; format: cell-based; for ACTIVITY RATING (0-3): key: 0 = no; 1 = weak; 2 = good; 3 = excellent
Septoria nodorum = experiment: as above; format: cell-based; conditions: Glum blotch; note: key: 0 = no; 1 = weak; 2 = good; 3 = excellent
soybean plants = experiment: Soybean seed treatment field trial on five farms in South Africa; format: in vivo
[7] = test system: Fusarium oxysporum var. pisi race1 33-11; experiment: In vitro inhibition of mycelial growth on silthiopham-amended agar; format: cell-based; for ACTIVITY RATING (0-3): key: 0 = no; 1 = weak; 2 = good; 3 = excellent
Colletotrichum trifolii = experiment: as above; format: cell-based; conditions: Root rot in alfalfa; note: key: 0 = no; 1 = weak; 2 = good; 3 = excellent
[8] = test system: Fusarium solani, var. coeruleum 4-2; experiment: as above; format: cell-based; for ACTIVITY RATING (0-3): key: 0 = no; 1 = weak; 2 = good; 3 = excellent
Phytopthera infestans = format: cell-based; conditions: Late blight
[9] = test system: Fusarium solani, var. pisi 34-2; experiment: In vitro inhibition of mycelial growth on silthiopham-amended agar; format: cell-based; for ACTIVITY RATING (0-3): key: 0 = no; 1 = weak; 2 = good; 3 = excellent
[10] = test system: Gaeumannomyces graminis var. tritici; experiment: as above; format: cell-based; for ACTIVITY RATING (0-3): key: 0 = no; 1 = weak; 2 = good; 3 = excellent
[11] = Fusarium solani, 96 h, Czapek-Dox agar, 4 days at 18° C., log-log fit
[12] = seed treatment prior to planting, at plant maturity
[13] = Fusarium oxysporum, 96 h, Czapek-Dox agar, 4 days at 18° C., log-log fit

C=CCNC(=O)c1c([Si](C)(C)C)sc(C)c1C [Silthiopham, 4,5-dimethyl-N-(2-propenyl)-2-(trimethylsilyl)-3-thiophenecarboxamide]
EC50 (Rhizoctonia solani 15-10; Rhizoctonia solani, 1510, 96 h, Czapek-Dox agar, 4 days at 18° C., log-log fit): 132 µg/mL (≈ 494 µM)
ACTIVITY RATING (0-3) (Rhizoctonia solani 15-10; Sheath blight): 0
EC50 [1, 11]: 127 µg/mL (≈ 476 µM)
ACTIVITY RATING (0-3) ([1]; Root rot): 0
EC50 [2, 11]: 126 µg/mL (≈ 470 µM)
ACTIVITY RATING (0-3) ([2]; Root rot): 0
improvement in yield compared with untreated control beans ([3]; FIG. 3, soybean yield): no improvement over the untreated control
seed weight increase (beans larger) than untreated control beans ([3]; FIG. 4): performed comparably with untreated beans
plant height increase (plants taller) than untreated control beans ([3]; FIG. 5): performed comparably with untreated beans
Canopy (% coverage) ([3]; percent of canopy closure, 100% is total coverage): 78%
Plant Height [3, 12]: 22.8 inches
Seed Weight [3, 12]: 11.0 gm/100 seeds
Grain Yield ([3]; seed treatment prior to planting, determined at plant maturity, adjusted to 13% moisture): 36.4 bu/ac
Vigor (1 worst-9 best) ([3]; standard 1-9 scale, 1 worst, 9 best and most vigorous): 6
activity against soybean pathogens (in words) [4]: little or no activity
EC50 (Rhizoctonia solani 15-9; Rhizoctonia solani, 159, 96 h, Czapek-Dox agar, 4 days at 18° C., log-log fit): 162 µg/mL (≈ 607 µM)
ACTIVITY RATING (0-3) (Rhizoctonia solani 15-9; Sheath blight): 0
EC50 [5, 13]: 109 µg/mL (≈ 407 µM)
ACTIVITY RATING (0-3) ([5]; Root rot): 0
EC50 [6, 13]: 112 µg/mL (≈ 421 µM)
ACTIVITY RATING (0-3) ([6]; Root rot): 0
ACTIVITY RATING (0-3) (Septoria nodorum): 0
SOYBEAN YIELD (soybean plants; Avg. of farms 3-5 (dryland)): 1949 kg/ha
SOYBEAN YIELD (soybean plants; Farm 4, dryland, cultivar SNK444, sand clay 12%): 1844 kg/ha
SOYBEAN YIELD (soybean plants; Farm 5, dryland, cultivar SNK400, clay 40%): 2054 kg/ha
grain yield, statistical comparison (soybean plants; combination vs standard Mollyflo+Bradyrhizobium, silthiopham alone vs non-treated control): did not significantly differ from the non-treated control
visual appearance of vegetative growth (soybean plants; compared to the standard Mollyflo+inoculant treatment): appeared visually greener and more vigorous
number of nodules on plant roots (soybean plants; farms 4 and 5, FIGS. 6 and 7, plants in 400-mm rows): did not substantially affect the number of nodules
plant weight (soybean plants; farms 4 and 5, FIGS. 8 and 9, 2 meters per plot): no effect on plant weight
visual appearance of nodules (soybean plants; where silthiopham was included in the treatment): Nodules visually appeared healthier
EC50 ([7]; Fusarium oxysporum, 96 h): 36100 µg/mL (≈ 135000 µM)
ACTIVITY RATING (0-3) ([7]; Root rot): 0
ACTIVITY RATING (0-3) (Colletotrichum trifolii): 0
EC50 [8, 11]: 113 µg/mL (≈ 423 µM)
ACTIVITY RATING (0-3) ([8]; Root rot): 0
ACTIVITY RATING (0-3) (Phytopthera infestans): 0
EC50 [9, 11]: 106 µg/mL (≈ 398 µM)
ACTIVITY RATING (0-3) ([9]; Root rot): 0
EC50 ([10]; Gaeumannomyces graminis, 96 h, Czapek-Dox agar, 4 days at 18° C., log-log fit): 0.001 µg/mL (≈ 0.00374 µM)
ACTIVITY RATING (0-3) ([10]; Take-all disease in cereals): 3
activity against Gaerumannomyces graminis var. tritici (in words) ([10]; summary of Table 6): excellent activity
